Patent EP4555995B1, “COSMETIC USE OF A CYCLOPROPENE FATTY ACID FOR INHIBITING SCD ACTIVITY” (Laboratoires d'Anjou, priority 2023, dated 2025)
Where “and” joins values, the source holds several entries; their conditions need not be identical. Equal values may be shown once.

What was measured:
[1] = tested on: cellules de mélanome murin B16; experiment: Preliminary cytotoxicity test, WST-8 reduction assay; assay type: cell-based; settings: for % de cellules viables: 72 h incubation, WST-8, individual replicates
Protocol: Avant cet essai, un essai de cytotoxicité a été réalisé à l'aide d'un essai standard de réduction WST-8, afin de déterminer les concentrations à tester dans cette étude.
(§1) • Modèle biologique : • Type cellulaire : Lignée cellulaire de mélanome murin B16 (= mélanocytes B16) • Conditions de culture : 37°C, 5% CO2 • Milieu de culture : DMEM sans rouge de phénol optimisé pour l'essai, complété par du sérum de veau fœtal à 10%. • Composé testé : acide sterculique 50, 100 et 200 µM (dans 0.066% ethanol) • Essai préliminaire de cytotoxicité • Type de cellule : Cellules de mélanome murin B16 en milieu de culture • Durée d'incubation : 72 heures • Paramètres d'évaluation : Essai de réduction WST-8 et observations morphologiques à l'aide d'un microscope. Après traitement, les cellules sont incubées avec du WST-8 (sel de tétrazolium très soluble dans l'eau) réduit en un produit soluble dans l'eau de couleur orange (formazan) par la succinate déshydrogé-nase (enzyme mitochondriale). Cette transformation est proportionnelle au nombre de cellules vivantes et à leur activité métabolique. La densité optique (DO) des extraits à 450 nm a été enregistrée avec un spectromètre (VERSAmax, Molecular Devices). • Culture et traitement
L'erreur standard de la moyenne (sem) est une mesure de la distance probable entre la moyenne de l'échantillon et la moyenne réelle de la population. Elle est calculée en divisant l'écart-type par la racine carrée de la taille de l'échantillon. Pourcentage deviabilité: viabilité(%) = (ODéchantillon/ODcontrôle) × 100 [formula] [formula]

[2] = tested on: cellules de mélanome murin B16 stimulées par le NDP-MSH; experiment: Melanin synthesis in B16 melanoma cells stimulated by NDP-MSH (total melanin content, absorbance at 405 nm); assay type: cell-based; settings: for Teneur en mélanine: NDP-MSH 0,1 µM, 72 h, percent of stimulated control, individual replicates
Excerpt: Dans la présente étude, l'effet blanchissant potentiel de l'acide sterculique a été évalué sur la synthèse de mélanine dans les cellules de mélanome murin B16 stimulées par un analogue stable de l'α-MSH, le NDP-MSH ([Nle4, D-Phe7]-α-Melanocyte Stimulating Hormone).
Le modèle de mélanocyte B16 constitue un modèle approprié pour la recherche d'effets inhibiteurs sur la production de mélanine car il est très réactif (par exemple à une stimulation NDP-MSH), ce qui entraîne une forte modulation de la production de mélanine entre les conditions basales et les conditions stimulées. Cette forte production de mélanine dans des conditions stimulées permet d'identifier les composés présentant des propriétés blanchissantes.
as §1
Des cellules de mélanome B16 ont été ensemencées dans une plaque à 96 puits et incubées dans un milieu de culture pendant 24 heures.
Le milieu a ensuite été remplacé par du milieu de culture, en présence de NDP-MSH à 0,1 µM, contenant ou non : - le solvant témoin (éthanol testé à 0,066 %), • le composé d'essai acide sterculique testé à 50, 100 ou 200 µM, • l'acide kojique de référence testé à 0,5 mM ou 3 mM, • la combinaison du composé testé acide sterculique (50, 100 ou 200 µM) et de l'acide kojique à 0,5 mM.
Les cellules ont été incubées pendant 72 heures. En parallèle, une condition de contrôle non stimulée a été réalisée.
À la fin du temps d'incubation, l'absorbance à 405 nm a été mesurée et la teneur totale en mélanine (extracellulaire et intracellulaire) a été calculée pour chaque échantillon à l'aide d'une courbe standard de mélanine allant de 0,78 à 100 µg/ml.
Les valeurs de fond (interférences potentielles), mesurées dans les puits sans cellules, ont été soustraites aux valeurs calculées afin de considérer l'effet lié à la production de mélanine uniquement.
Les résultats ont été exprimés en pourcentage de mélanine par rapport au contrôle stimulé.

cellules B16 = experiment: Total protein quantity (DC Protein Assay) in B16 cells of the melanin test; assay type: cell-based, murin; settings: 200 µM; concluded from protein content
Protocol: La quantité de protéines totales contenues dans les cellules et les surnageants de chaque réplicat a été mesurée à l'aide du kit DC Protein Assay contre une gamme de BSA avec un lecteur de microplaques à 750 nm (VERSAmax, Molecular Devices).
Kit : DC Protein Assay de BIO-RAD ref 500-0116.
Limite de détection basse : 0,2 mg/ml Limite de détection haute : 2 mg/ml Pour chaque condition de test, la quantité de mélanine a été normalisée par rapport à la quantité de protéines totales.

Row | SMILES | % de cellules viables ([1]; AcSter 12 µM) | % de cellules viables ([1]; AcSter 37 µM) | % de cellules viables ([1]; AcSter 111 µM) | % de cellules viables ([1]; AcSter 333 µM) | % de cellules viables ([1]; AcSter 1000 µM) | % de cellules viables ([1]; AcSter 1,5 µM) | effet sur la viabilité ([1]; up to 111 µM, B16 cells, WST-8 (Fig 1)) | effet sur la synthèse de mélanine ([2]; 50 µM, NDP-MSH-stimulated B16 cells) | inhibition relative ([2]; 100 µM and 200 µM, strong, concentration-dependent inhibition of melanin synthesis) [%] | inhibition de la teneur en mélanine ([2]; 100 µM, B16 cells (Fig 2)) | efficacy on melanin content compared with acide kojique à 3mM ([2]; 200 µM, B16 cells (Fig 2)) | inhibition de la teneur en mélanine ([2]; 200 µM, B16 cells (Fig 2)) | Teneur en mélanine ([2]; AS 50 µM, listed as AS) | Teneur en mélanine ([2]; AS 100 µM, listed as AS) | Teneur en mélanine ([2]; AS 200 µM, listed as AS) | viabilité des cellules (cellules B16) | inhibition relative ([2]; 0,5 mM, melanin synthesis in NDP-MSH-stimulated B16 cells) [%] | inhibition relative ([2]; 3 mM, inhibition of the NDP-MSH effect on melanin synthesis) [%] | Teneur en mélanine ([2]; KA 0,5 mM, listed as KA) | Teneur en mélanine ([2]; KA 3 mM, listed as KA)
1 | CCCCCCCCC1=C(CCCCCCCC(=O)O)C1 [acide sterculique, 8-(2-octyl-cyclopropen-1-yl)-octanoic acid] | 112,1381% and 146,2746% and 110,4588% | 82,74032% and 102,0043% and 72,79147% | 112,2056% and 119,9363% and 106,0771% | 26,41552% and 44,06769% and 52,32917% | 1,061339% and 1,910951% and 2,113628% | 133,9982% and 119,6442% and 122,5711% | n'a pas eu d'effet sur la viabilité | n'a eu aucun effet | ≤ 93 | inhibition marquée | aussi efficace que l'acide kojique à 3mM | inhibition marquée | 103,1496% and 125,1337% and 106,9156% | 57,21785% and 56,01605% and 61,96404% | 13,64829% and 13,90374% and 21,16183% | n'inhibe pas la viabilité des cellules | – | – | – | –
2 | O=c1cc(CO)occ1O [acide kojique, reference compound] | – | – | – | – | – | – | – | – | – | – | – | – | – | – | – | – | 65 | 89 | 31,36483% and 49,33155% and 42,04703% | 17,4540% and 20,7219% and 19,5020%
